{"source": "patent US5277897A", "about": "“In vivo enhancement of cellular accumulation of lipophilic cationic organometallic compounds by reduction of intramembrane potential” (Brigham and Women's Hospital, priority 1992, dated 1994)", "key": {"[1]": {"test": "Effect of tetraphenylborate on the biodistribution of Tc-MIBI in rats (Table 2)", "type": "in vivo", "conditions": "for Blood level / Heart uptake / Kidney uptake / Liver uptake / Lung uptake: 15 minutes; for tissue retention of Tc-MIBI, all tissues: 15 min", "experimental": "The results are expressed as percent injected dose per gram of tissue. […] For this series of experiments, 50 microliters of dimethylsulfoxide lacking or containing 7.2 mM TPB were injected directly into the jugular vein of anesthetized rats immediately prior to the injection of Tc-MIBI (150 microliters; 100 microCuries per 200 microliters).\nAfter 15 minutes, the animal was sacrificed by thoracotomy, organs extracted and placed in test tubes and counted for radioactivity in a standard well-type gamma counter. Tissue wet weights were obtained by subtracting fare weights from total weight of test tubes plus tissue.\nResults are expressed as mean ±SEM of three determinations each."}, "[2]": {"tested_on": "cultured chick heart cells", "test": "Effect of valinomycin on tetraphenylborate enhancement of Tc-MIBI accumulation in high Ko buffer (Table 1)", "type": "cell-based", "conditions": "for Tc-MIBI Net Uptake: n = 3", "experimental": "Monolayers of spontaneously contractile chick ventricular myocardial cells were obtained from disaggregated 10-day old chick embryo hearts by a slight modification of previously published methods (Horres, C. R., et al., In Pinson, A. (ed.), The Heart Cell in Culture, Boca Raton, CRC Press, pp. 77-108 (1987)). Hearts were trimmed of connective tissue and atria, finely minced and serially exposed to 0.024% (w/v) trypsin in Ca^2+ - and Mg^2+ - free Earle's salt solution for 7 minutes at 37° C. Gentle trituration and agitation on an orbital shaker bath aided disaggregation. Cells released from the first exposure were discarded and cells aspirated from the next four exposures were then added to an equal volume of trypsin deactivating solution consisting of ice-cold culture medium. Cells were centrifuged at 400 g for 10 minutes, resuspended and combined in culture medium, counted with a hemocytometer and diluted to yield a suspension of 5×10^5 cells/ml. 12 ml of suspension were incubated in 100 mm plastic culture dishes containing 7 coverslips (25 mm diameter) placed on the bottom of each dish to serve as substrate for cell growth. Cells were maintained in a humidified atmosphere of 5% CO2 /95% air for 3-4 days yielding a confluent layer of spontaneously contractile myocytes on each coverslip.\nRadioactive uptake methods have been described in detail (Piwnica-Worms, D., et al, Circ. (in press). Briefly, coverslips with confluent cells were removed from culture media and pre-equilibrated for 40-60 seconds in MEBSS buffer. Uptake and retention experiments were initiated by immersion of coverslips in 60 mm glass Pyrex dishes containing loading solution consisting of buffer with 0.1-0.6 nM [^99m Tc-MIBI] (0.01-0.4 Ci/nmole; 25-100 uCi/ml). Preparations were removed at various times and rinsed three times in 25 ml volumes of ice-cold (2° C.) isotope-free buffer for 8 seconds each to clear extracellular spaces. Preparations and aliquots of the loading buffer and stock solutions were counted in a well-type sodium iodide gamma counter after which cell protein on each coverslip was extracted in 1% sodium dodecylsulfate with 10 mM sodium borate and assayed by the method of Lowry (Lowry, O. H., et al., J. Biol. Chem. 193:265-275 (1951)). Tc-MIBI binding to glass coverslips without cells was used as an estimate of non-specific adhesion to the substrate ([…] obtained with cellular preparations); this value was subtracted from total uptake determinations to derive the cell-associated counts. Use of generator equilibrium equations (Lamson, M. L., et al., i J. Nucl. Med. 16:639-641 (1975)) allowed calculation of absolute moles of Tc-MIBI in solutions and preparations. Results were therefore expressed as fmol cellular Tc-MIBI/mg protein per nM extracellular Tc-MIBI concentration. Division of this value by the cell water space (6.9 ul/mg protein; Chiu, M. L., et al., J. Nucl. Med. (31:1646-1653(1990)) yields a nominal intracellular/extracellular Tc-MIBI accumulation ratio neglecting subcellular compartmentation of the agent.\nTo further explore the influence of TPB on any potential-independent accumulation of Tc-MIBI in myocytes, preparations were exposed to 130 mM K° 20 mM Clo buffer (Table 1). […] Equilibration of intracellular and extracellular spaces occurred in the presence of high K buffer plus valinomycin under all conditions (in/out ration ~1; P=NS) indicating the lack of any significant potential-independent membrane binding of Tc-MIBI.\nPreparations were incubated in high Ko low Clo loading buffer +/- valinomycin (1 ug/ml) for 20 minutes in the presence of TPB (10^-5 M) or for 40 minutes in its absence to determine peak accumulation of Tc-MIBI under each condition. Values are the mean ±SEM. Tc-MIBI in/out ratios were obtained by dividing net uptake values by the cell water space of […] (Chiu, M. L., et al., J. Nucl. 31:1646-1653 (1990)). +p<0.01; * p<0.001 compared to net uptake in 130 mM Ko buffer."}}}
{"compound": "[C-]#[N+]CC(C)(C)OC.[C-]#[N+]CC(C)(C)OC.[C-]#[N+]CC(C)(C)OC.[C-]#[N+]CC(C)(C)OC.[C-]#[N+]CC(C)(C)OC.[C-]#[N+]CC(C)(C)OC.[Tc]", "note": "[Tc-MIBI, hexakis(methoxyisobutylisonitrile)technetium(I)]", "values": [{"measurement": "Blood level", "setting": "[1]; +TPB", "result": "0.06 ± 0.01", "unit": "% ID/gm"}, {"measurement": "Heart uptake", "setting": "[1]; +TPB", "result": "1.45 ± 0.11", "unit": "% ID/gm"}, {"measurement": "Kidney uptake", "setting": "[1]; +TPB", "result": "5.81 ± 0.74", "unit": "% ID/gm"}, {"measurement": "Liver uptake", "setting": "[1]; +TPB", "result": "0.76 ± 0.40", "unit": "% ID/gm"}, {"measurement": "Lung uptake", "setting": "[1]; +TPB", "result": "1.07 ± 0.15", "unit": "% ID/gm"}, {"measurement": "tissue retention of Tc-MIBI, all tissues", "setting": "[1]; +TPB", "result": "9.15 % ID per gram of total tissue"}, {"measurement": "Blood level", "setting": "[1]; -TPB", "result": "0.04 ± 0.01", "unit": "% ID/gm"}, {"measurement": "Heart uptake", "setting": "[1]; -TPB", "result": "1.92 ± 0.51", "unit": "% ID/gm"}, {"measurement": "Kidney uptake", "setting": "[1]; -TPB", "result": "3.38 ± 1.09", "unit": "% ID/gm"}, {"measurement": "Liver uptake", "setting": "[1]; -TPB", "result": "0.25 ± 0.15", "unit": "% ID/gm"}, {"measurement": "Lung uptake", "setting": "[1]; -TPB", "result": "0.45 ± 0.09", "unit": "% ID/gm"}, {"measurement": "tissue retention of Tc-MIBI, all tissues", "setting": "[1]; -TPB", "result": "6.04 % ID per gram of total tissue"}, {"measurement": "Tc-MIBIi/Tc-MIBIo (in/out ratio)", "setting": "[2]; 130 Ko (no TPB)", "result": 9.5}, {"measurement": "Tc-MIBI Net Uptake", "setting": "[2]; 130 Ko (no TPB), 40 minutes", "result": "65.3 ± 5.3", "unit": "fmol/mg protein/nMo"}, {"measurement": "Tc-MIBIi/Tc-MIBIo (in/out ratio)", "setting": "[2]; 130 Ko + TPB 10^-5 M", "result": 13.6}, {"measurement": "Tc-MIBIi/Tc-MIBIo (in/out ratio)", "setting": "[2]; 130 Ko + TPB 10^-5 M + valinomycin 1 ug/ml", "result": 1.1}, {"measurement": "Tc-MIBI Net Uptake", "setting": "[2]; 130 Ko + TPB 10^-5 M + valinomycin 1 ug/ml, 20 minutes, p<0.001 vs 130 mM Ko", "result": "7.6 ± 0.8", "unit": "fmol/mg protein/nMo"}, {"measurement": "Tc-MIBI Net Uptake", "setting": "[2]; 130 Ko + TPB 10^-5 M, 20 minutes, p<0.01 vs 130 mM Ko", "result": "93.9 ± 4.4", "unit": "fmol/mg protein/nMo"}, {"measurement": "Tc-MIBIi/Tc-MIBIo (in/out ratio)", "setting": "[2]; 130 Ko + valinomycin 1 ug/ml", "result": 0.9}, {"measurement": "Tc-MIBI Net Uptake", "setting": "[2]; 130 Ko + valinomycin 1 ug/ml, 40 minutes, p<0.001 vs 130 mM Ko", "result": "6.2 ± 0.3", "unit": "fmol/mg protein/nMo"}, {"measurement": "in/out ratio, high K buffer plus valinomycin", "setting": "[2]; all conditions, P=NS", "result": "~ 1"}]}
